Source: US4996217A, “Pyridyl-substituted imidazoles, compositions containing same and methods of use thereof” (Tanabe Seiyaku Company, Ltd., priority 1986, dated 1991)

Key:
H+/K+ ATPase = target: T1, H+/K+ ATPase (Sus scrofa, UniProt P19156); assay: effect on the enzyme activity of H+/K+ ATPase prepared from porcine gastric mucosa; type: biochemical; conditions: read-out: IC50 (concentration required to induce 50% inhibition of H+/K+ ATPase enzymatic activity)
T1 construct: prepared from the porcine gastric mucosa; from tissue; host or cells: porcine gastric mucosa
T1 sequence (P19156 2-1034 limits assumed): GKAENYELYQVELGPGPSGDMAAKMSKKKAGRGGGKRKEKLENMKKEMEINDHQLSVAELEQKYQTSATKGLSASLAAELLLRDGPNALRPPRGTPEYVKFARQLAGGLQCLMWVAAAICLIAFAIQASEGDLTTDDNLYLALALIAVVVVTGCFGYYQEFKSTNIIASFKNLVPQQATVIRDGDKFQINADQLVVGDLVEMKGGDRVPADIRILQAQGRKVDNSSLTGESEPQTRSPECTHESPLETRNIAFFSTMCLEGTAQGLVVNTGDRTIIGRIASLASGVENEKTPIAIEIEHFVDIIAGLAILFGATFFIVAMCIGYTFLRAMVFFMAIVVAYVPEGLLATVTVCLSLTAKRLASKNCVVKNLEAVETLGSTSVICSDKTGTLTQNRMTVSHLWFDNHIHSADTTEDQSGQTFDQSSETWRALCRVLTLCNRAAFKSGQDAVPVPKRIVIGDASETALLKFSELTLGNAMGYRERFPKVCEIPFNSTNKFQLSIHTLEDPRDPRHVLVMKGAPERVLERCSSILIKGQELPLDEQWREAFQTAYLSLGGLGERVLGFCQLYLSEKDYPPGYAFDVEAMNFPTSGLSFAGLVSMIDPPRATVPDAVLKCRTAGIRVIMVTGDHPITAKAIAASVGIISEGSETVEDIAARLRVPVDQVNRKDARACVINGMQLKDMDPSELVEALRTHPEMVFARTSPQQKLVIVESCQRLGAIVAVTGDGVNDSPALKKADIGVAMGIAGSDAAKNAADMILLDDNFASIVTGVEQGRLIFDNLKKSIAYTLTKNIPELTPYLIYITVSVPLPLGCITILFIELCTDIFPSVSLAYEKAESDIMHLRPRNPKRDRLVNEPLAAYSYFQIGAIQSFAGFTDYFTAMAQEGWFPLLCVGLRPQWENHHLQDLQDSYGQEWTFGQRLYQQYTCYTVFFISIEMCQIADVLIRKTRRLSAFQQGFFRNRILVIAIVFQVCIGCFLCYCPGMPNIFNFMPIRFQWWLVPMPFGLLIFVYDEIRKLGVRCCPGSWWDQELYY
T1 sequence (P18434 whole entry partner): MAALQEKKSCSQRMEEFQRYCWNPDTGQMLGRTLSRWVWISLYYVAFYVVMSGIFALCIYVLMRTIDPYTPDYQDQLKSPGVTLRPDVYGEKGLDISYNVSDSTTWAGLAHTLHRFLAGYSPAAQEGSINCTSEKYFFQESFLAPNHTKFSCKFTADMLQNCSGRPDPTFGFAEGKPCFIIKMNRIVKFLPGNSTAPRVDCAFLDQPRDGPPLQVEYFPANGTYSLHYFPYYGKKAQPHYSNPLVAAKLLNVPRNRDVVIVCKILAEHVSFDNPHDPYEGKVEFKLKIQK

[1] = test system: gastrin-induced gastric acid secretion; assay: effect on gastrin-induced gastric acid secretion, oral administration to rats; type: in vivo; conditions: dose of 30 mg/kg

| Compound | IC50 (H+/K+ ATPase) | decrease in gastric acid secretion as compared with non-administered group of rats [1] |
| --- | --- | --- |
| [O-][S+](Cc1ccccc1-n1cccc1)c1nccn1-c1ccccn1 (stereo not drawn) [1-(2-pyridyl)-2-(2-(1-pyrrolyl)-benzylsulfinyl)imidazole] | – | more than 70% |
| CCN(CC)c1ccccc1C[S+]([O-])c1nccn1-c1cc(OC)cc(C)n1 (stereo not drawn) [1-(4-methoxy-6-methyl-2-pyridyl)-2-(2-(diethylamino)benzylsulfinyl)imidazole] | < 10 µM | – |
| Cc1cccnc1-n1ccnc1[S+]([O-])Cc1ccccc1N(C)C (stereo not drawn) [1-(3-methyl-2-pyridyl)-2-(2-(dimethylamino)benzylsulfinyl)imidazole] | – | more than 70% |

The next lines start with results.

| IC50 (H+/K+ ATPase) | Compound | decrease in gastric acid secretion as compared with non-administered group of rats [1] |
| --- | --- | --- |
| < 10 µM | [O-][S+](Cc1ccccc1NC1CCCCC1)c1nccn1-c1ccccn1 (stereo not drawn) [1-(2-pyridyl)-2-(2-(cyclohexylamino)benzylsulfinyl)imidazole] | – |
| ~10 µM | CCN(CC)c1ccccc1C[S+]([O-])c1nc2c(n1-c1ccccn1)CCC2 (stereo not drawn) [1,4,5,6-tetrahydro-1-(2-pyridyl)-2-(2-(diethylamino)benzylsulfinyl)cyclopenta(d)imidazole] | more than 70% |
